# Measured values: patent US20190054054A1, “Methods reducing or preventing oxidation of high density lipoprotein (HDL)” (Amarin Pharmaceuticals Ireland Limited, priority 2017, published 2019)
# Key:
# human HDL = assay: Copper-induced oxidation of human HDL, TBARS/MDA (Example 14); assay type: biochemical
# Experimental: LDL and sdLDL subfractions (0.6 mL each) were incubated with either 10 μL vehicle (ethanol) or 10 μL drug stock solution for 30 min to 1 hr at 37° C. Oxidation was initiated by the addition of 10 μM CuSO4. After 2 hr, 100 μL aliquots were removed from each subfraction and combined with 1.0 mL thiobarbituric acid (0.5%), 10 μL trichloroacetic acid (5%), 10 μL BHT (5 mg/mL in methanol), and 10 μL EDTA (5 mM). Sample aliquots were incubated at 100° C. for 20 min and then assayed for the formation of thiobarbituric acid-reactive substances (TBARS), which have a molar absorptivity (c) value of 1.56×10^5 M^−1 cm^−1 at 532 nm and are derived principally from the reaction of thiobarbituric acid with malondialdehyde (MDA), a reactive aldehyde produced by LDL oxidation. Sample TBARS concentrations were determined spectrophotometrically by measuring sample absorbances against a standard curve derived from the hydrolysis of 1,1,3,3-tetramethoxypropane.
# A study was performed to test whether EPA, DHA or EPA/DHA have antioxidant effects on high density lipoprotein. HDL was isolated from human plasma by iodixanol gradient ultracentrifugation and adjusted to a final apolipoprotein (apoA1) concentration of 10 mg/mL. Isolated HDL was separated into test samples of 200 μg/mL […] (based on ApoA1), and incubated at 37° C. in the absence (vehicle) or presence of EPA and/or DHA; 5.0 or […] each. Samples were then subjected to copper-induced oxidation (10 μM CuSO4) and, at different time points up to 14 hours, aliquots were removed from each sample and formation of TBARS was determined as explained above in Example 6.
# [1] = system: rat renal glomerular endothelial cells; assay: NO and ONOO^− release ex vivo from rat glomerular endothelial cells exposed to oxLDL and high glucose (Example 13); assay type: cell-based; conditions: oxLDL 11 mg/dL and glucose 300 mg/dL, treatment 1 hr at 10.0 μM
# Experimental: Healthy male Wistar Kyoto (WKY) rats, aged 7-9 weeks and weighing 250±20 g, were obtained from inbred colonies (National Institutes of Health, Bethesda, Md.). Animals were housed in a controlled environment that provided food and water ad libitum prior to the study. […] Animals were sacrificed and tissue samples obtained immediately for experimentation. All procedures were conducted in accordance with standard Institutional Animal Care and Use Committee guidelines and conformed to the Guide for the Care and Use of Laboratory Animals published by the US National Institutes of Health.
# EPA and DHA were purchased from Sigma-Aldrich (St. Louis, Mo.) and solubilized in ethanol to 1.0 mM under nitrogen atmosphere. […] The calcium ionophore (Cal), A23187, was purchased from Sigma-Aldrich and prepared in aqueous buffer to 1.0 mM. All test compounds were further diluted in ethanol or aqueous buffer as needed.
# Venous blood from healthy normolipidemic volunteers was collected into Na-EDTA (1 mg/mL blood) vacuum tubes after a 12-hour fast. […] The LDL fraction was dialyzed for 96 hours against PBS containing 0.3 mM EDTA and stored at 4° C. until experimental use.
# LDL was oxidized according to the methods of Huber et al. 16 Briefly, the purified LDL fraction was dialyzed against Tris/NaCl Buffer (50 mM Tris in 0.15 M NaCl, pH 8.0) to remove EDTA. Additional buffer was added to adjust the protein concentration to 30 mg/mL. LDL oxidation was initiated with 20 μM CuSO4 and monitored spectrophotometrically (234 nm) over a period of 24 hours until complete. The oxLDL was then dialyzed at 4° C. with 4 L Tris buffer, filtered with a 0.22 µm filter, and stored under nitrogen at 4° C.
# Immediately after sacrificing the rats, kidneys were removed, cut into […] sections and transferred to a separate organ chamber containing Dulbecco's phosphate buffered saline ([…]) and […] glucose at pH 7.4.
# Concurrent measurements of NO and ONOO^− were performed on intact glomerular (cortical zone) endothelial cells using tandem electrochemical nanosensors, as previously described (FIG. 45).
# The NO/ONOO^− nanosensor was positioned near the surface of the endothelial cells using a computer-controlled M3301 micromanipulator (x-y-z resolution of 0.2 μm) and microscope (both from World Precision Instruments, Berlin, Germany) fitted with a CD camera. Each analyte was measured from amperograms and standard calibration curves collected under maximum current. […] After establishing a background current, maximal NO and ONOO^− release was induced by injecting Cal into the organ chamber using a nanoinjector (World Precision Instruments, Berlin Germany). Changes in current (proportional to the molar concentrations of NO or ONOO^− released) were monitored continuously immediately following Cal stimulation.
# Data are presented as mean+standard deviation (SD) for (N) separate samples or experiments. Differences between groups were analyzed using the unpaired, two-tailed Student's t-test (for comparisons between only two groups) or ANOVA followed by Student-Newman-Keuls multiple comparisons post hoc analysis (for comparisons between three or more groups). Only differences with probability values less than 0.05 were considered significant.
# [2] = 5 μM (combination: 5 μM each), 6 h
structure (smiles),measurement,setting,value
"CC/C=C\C/C=C\C/C=C\C/C=C\C/C=C\CCCC(=O)O [EPA, cis-5,8,11,14,17-eicosapentaenoic acid]",MDA formation,human HDL; [2],1.03 ± 0.10 µM
same,inhibition of HDL oxidation (antioxidant activity),human HDL; [2],81%
same,MDA formation,"human HDL; 10 μM, 1.0 hr, 10 μM CuSO4",0.384 ± 0.097 µM
same,inhibition of HDL oxidation,"human HDL; 10 μM, 1.0 hr, 10 μM CuSO4",92%
same,MDA formation,"human HDL; 10 μM, 4 h",0.622 ± 0.066 µM
same,inhibition of HDL oxidation,"human HDL; 10 μM, 4 h",89%
same,MDA formation,"human HDL; 10 μM, 14 h",2.01 ± 0.10 µM
same,inhibition of HDL oxidation vs. vehicle,"human HDL; 10 μM, 14 h",64%
same,NO/ONOO^− Ratio,[1],1.08
same,increase in NO release,[1]; versus vehicle,205%
same,increase of the NO/ONOO^− ratio,[1]; versus vehicle,more than 4 fold
same,reduction of ONOO^− release,[1]; versus vehicle,27%
